Measurements reported in patent publication US5744355A, “cDNA cloning and expression of human liver estrogen sulfotransferase” (Mayo Foundation for Medical Education and Research, priority 1995, dated 1998).

T1: protein encoded by the human liver EST cDNA (Homo sapiens, UniProt P49888)
T1 construct: made in house; host or cells: COS-1 (ATCC CRL-1650) cells transiently transfected with EST-p91023(B); 100,000 x g supernatant used
T1 sequence (P49888 1-294): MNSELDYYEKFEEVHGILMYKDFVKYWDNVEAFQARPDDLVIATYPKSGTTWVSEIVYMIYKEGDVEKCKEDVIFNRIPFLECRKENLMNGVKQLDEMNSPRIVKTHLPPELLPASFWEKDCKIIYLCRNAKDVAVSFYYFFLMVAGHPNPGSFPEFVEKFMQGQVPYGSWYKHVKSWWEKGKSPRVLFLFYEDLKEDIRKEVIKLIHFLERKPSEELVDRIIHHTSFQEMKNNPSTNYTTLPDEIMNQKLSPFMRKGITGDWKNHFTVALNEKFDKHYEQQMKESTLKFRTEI

T2: recombinant human liver EST enzyme (Homo sapiens, UniProt P49888)
T2 sequence (P49888 1-294): T1 sequence (P49888 1-294)

T3: recombinant human liver DHEA ST enzyme (Homo sapiens, UniProt Q06520)
T3 sequence (Q06520 1-285): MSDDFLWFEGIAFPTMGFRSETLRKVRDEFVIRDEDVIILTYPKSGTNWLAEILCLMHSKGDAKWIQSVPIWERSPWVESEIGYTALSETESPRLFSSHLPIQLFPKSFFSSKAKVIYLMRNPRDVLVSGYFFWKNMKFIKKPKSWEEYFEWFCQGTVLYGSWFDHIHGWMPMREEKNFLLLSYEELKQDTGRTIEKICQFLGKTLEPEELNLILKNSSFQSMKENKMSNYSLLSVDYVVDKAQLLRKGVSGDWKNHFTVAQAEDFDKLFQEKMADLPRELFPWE

T4: human EST enzyme (Homo sapiens, UniProt P49888)
T4 sequence (P49888 1-294): T1 sequence (P49888 1-294)

B1: EST enzyme: recombinant human liver estrogen sulfotransferase (SEQ ID NO:2) expressed in COS-1 cells (protein)
chain: T1 sequence (P49888 1-294)

What was measured:
[1] = biological target: T1, protein encoded by the human liver EST cDNA; test: ST enzymatic activity after transfection of COS-1 cells with human liver EST cDNA in p91023(B); format: biochemical; conditions: for sulfation catalyzed by the protein encoded by the human liver EST cDNA: approximate values, transfected COS-1 cells; for ST enzymatic activity, EST cDNA, Average: average of two experiments; for ST enzymatic activity, EST cDNA, Average / ST enzymatic activity, EST cDNA, Expt. 1: HSS of transfected COS-1 cells
Description: COS-1 (ATCC No. CRL-1650) cells were transfected with an EST cDNA expression construct in the eukaryotic expression vector p91023(B) as well as with vector alone using the DEAE-dextran method (H. Luthman et al., Nucleic Acids Res., 11, 1295-1308 (1983)). Specifically, the COS-1 cells were plated in 100-mm dishes in Dulbecco's modified Eagle's medium (DMEM) supplemented with 10% fetal calf serum (FCS) at a density of 1.2×10^6 cells/dish, and were grown overnight. The EST-p91023(B)construct, a control human liver DHEA ST-p91023(B) construct, p91023(B) with no insert, or only buffer were mixed with DEAE-dextran and DMEM and were added to the cell culture dishes (J. H. McCutchan et al., J. Natl. Cancer Inst., 41, 351 (1968); R. J. Kaufman et al., Mol. Cell. Biol., 2, 946 (1989)). After 1 hour, the DEAE-dextran solution was replaced for 2 minutes by DMEM that contained 10% dimethylsulfoxide (DMSO), followed by 0.1 mM chloroquine in DMEM for 2 hours (H. Luthman et al., Nucleic Acids Res., 11, 1295 (1983)). Cells were then grown for 48 hours in DMEM supplemented with 10% FCS. After harvesting, cell pellets were washed with 5 ml of phosphate buffered saline (PBS) and were homogenized for 30 seconds in 2 ml of 5 mM potassium phosphate buffer, pH 6.5. The homogenates were centrifuged at 12,000-15,000×g for 15 minutes at 4° C., and supernatants were collected and centrifuged at 100,000×g for 1 hour at 4° C. Five μl aliquots of the 100,000×g "high-speed supernatants" (HSS) were assayed for ST enzymatic activities (Example IV).
ST activities were measured in preparations of transfected COS- 1 cells using DHEA, 4- nitrophenol and dopamine, model substrates for DHEA ST, TS PST and TL PST, respectively (Example IV). The assays were performed under optimal conditions for the measurement of these three enzyme activities in human liver preparations (N. R. C. Campbell et al., Biochem. Pharmacol., 36, 1435-1446 (1987); J. S. Hernandez et al., Drug Metab. Dispos., 20, 413-422 (1992), both of which are incorporated herein by reference). The sulfation of estrone was measured using optimal conditions for the assay of EST activity of human EST enzyme (Example III(c)).
Estrone was used as the substrate to determine optimal assay conditions and, subsequently, to characterize the properties of human EST enzyme. […] Mg^2+ is known to increase the activities of several ST enzymes (J. S. Hernandez et al., Drug Metab. Dispos., 20, 413-422 (1992); I. A. Aksoy et al., Druc, Metab. Dispos., 21, 268-276 (1993)). […]

[2] = biological target: T2, recombinant human liver EST enzyme; test: Substrate kinetics (apparent Km), COS-1 expressed EST enzyme; format: biochemical; design: made in house; host or cells: COS-1 (ATCC CRL-1650) cells transiently transfected with EST-p91023(B); 100,000 x g supernatant used; conditions: compound as sulfate acceptor substrate; estrone 0.01 to 0.1 μM, DHEA 0.0125 to 32 μM
Description: (§1) Total reaction assay volume was about 200 μl . […] The tubes were vortexed after each addition.
(§2) Substrate kinetic studies designed to estimate apparent Km values were performed utilizing the EST and DHEA ST activity assays described above and in Example III. Since human liver EST enzyme and DHEA ST enzyme can both catalyze the sulfation of steroids, these studies presented an opportunity to determine apparent Km values of the two enzymes with estrone and DHEA as substrates. Both enzyme preparations were tested with a range of estrone and DHEA concentrations (Table III).
(§3) Apparent Km values were calculated by the method of Wilkinson (Biochem. J., 80, 324-332 (1961)) with a computer program written by Cleland (Nature, 198, 463-465 (1963)).

[3] = biological target: T3, recombinant human liver DHEA ST enzyme; test: Substrate kinetics (apparent Km), COS-1 expressed DHEA ST enzyme; format: biochemical; design: made in house; host or cells: COS-1 cells transiently transfected with human liver DHEA ST-p91023(B); 100,000 x g supernatant used; conditions: compound as sulfate acceptor substrate; estrone 0.2 to 100 μM, DHEA 0.06 to 10 μM
Description: as §1, §2, §3

human EST enzyme = biological target: T4, human EST enzyme; test: Preferred substrate and optimal assay conditions for recombinant human EST enzyme; format: biochemical
Description: Estrone was used as the substrate to determine optimal assay conditions and, subsequently, to characterize the properties of human EST enzyme. […] The optimal pH for the measurement of estrone ST activity with the expressed protein was approximately 6.5 in the presence of 8.2 mM potassium phosphate buffer. […] EST activity assays were subsequently performed on crude extracts from recombinant COS-1 cells expressing human EST enzyme using the optimal assay conditions thus identified: at a reaction pH of 6.5 in the presence of 1.25 mM MgCl2 with 0.05 μM estrone as the sulfate acceptor substrate, in 8.2 mM potassium phosphate buffer.

[4] = biological target: T3, recombinant human liver DHEA ST enzyme; conditions: 75 mM NaCl; substrate DHEA
Description: The previously described EST and DHEA ST activity assays were used to measure ST activities of recombinant human liver EST enzyme and DHEA ST enzyme, respectively, wherein NaCl concentration in the reaction mixture was made 0.6 to 150 mM by the addition of 5 μL of a concentrated aqueous NaCl solution prior to incubation.

[5] = biological target: T2, recombinant human liver EST enzyme; conditions: 150 mM NaCl; substrate estrone
From the text: Estrone was used as the substrate to determine optimal assay conditions and, subsequently, to characterize the properties of human EST enzyme. […] Mg^2+ is known to increase the activities of several ST enzymes (J. S. Hernandez et al., Drug Metab. Dispos., 20, 413-422 (1992); I. A. Aksoy et al., Druc, Metab. Dispos., 21, 268-276 (1993)).

[6] = Thermal inactivation of ST activity; format: physicochemical, human; conditions: 15 minutes preincubation; mean ±SEM
Description: Aliquots of recombinant COS-1 cell extracts were incubated at 31°, 33°, 35°, 37°, 39°, 41°, 43° or 45° C. for 15 minutes prior to assay to determine thermal inactivation parameters. […] For the thermal inactivation experiment, aliquots of HSS from COS-1 cells transfected with EST cDNA or DHEA ST cDNA were diluted 1:2 (v/v) with 5 mM potassium phosphate buffer, pH 6.5, preincubated at various temperatures for 15 minutes and was then placed on ice. An aliquot of the same preparation was kept on ice as a control. Each aliquot was then diluted further for assay of the ST activity being measured. Values for controls were determined at each temperature studied. Data obtained during thermal inactivation and DCNP inhibition studies were analyzed with the GraphPAD InPlot curve-fitting program (GraphPAD InPlot Software, San Diego, Calif.).

[7] = first EST cDNA column, estrone 0.05 μM, DHEA 5 μM, 4-nitrophenol 4 μM, dopamine 60 μM, 1 unit = 1 nmol sulfated product per hour at 37° C.
[8] = second EST cDNA column, same substrate concentrations

Molecule	sulfation catalyzed by the protein encoded by the human liver EST cDNA [1]	ST enzymatic activity, EST cDNA, Average [1] [units/mg protein]	ST enzymatic activity, EST cDNA, Expt. 1 [1, 7] [units/mg protein]	ST enzymatic activity, EST cDNA, Expt. 1 [1, 8] [units/mg protein]	other results
O=[N+]([O-])c1ccc(O)cc1 [4-Nitrophenol, 4-nitrophenol]	~ 5 units/mg protein	5.2	3.4	6.9	
C[C@]12CC[C@H](O)CC1=CC[C@@H]1[C@@H]2CC[C@]2(C)C(=O)CC[C@@H]12 [DHEA, dehydroepiandrosterone]	~ 2 units/mg protein	2.3	1.3	3.3	Km [2]: 0.85 µM; Km [3]: 2.6 µM
NCCc1ccc(O)c(O)c1 [Dopamine, dopamine]	not	0.0	0.0	0.0	
C[C@]12CC[C@@H]3c4ccc(O)cc4CC[C@H]3[C@@H]1CCC2=O [Estrone]	~ 9 units/mg protein	8.8	6.0	11.5	Km [2]: 0.17 µM; sulfotransferase activity relative to other sulfate acceptor substrates (human EST enzyme; compared with estradiol-17β, ethinyl estradiol, or DHEA): greater sulfotransferase activity; estrone concentration giving maximal enzymatic activity (human EST enzyme; range 0.01 to 0.10 μM tested): 0.05 µM; Km [3]: 3.1 µM
[Cl-].[Cl-].[Mg+2] [Mg^2+, MgCl2]					increase of EST activity (human EST enzyme; 1.25 mM Mg2+, estrone as substrate): 20%
[Cl-].[Na+] [NaCl]					peak activation of DHEA ST activity [4]: 62%; increase of EST activity [5]: 86%
B1					temperature at which 50% inactivation of activity occurred [6]: 38.2±0.12 °C
